Experimental data reported in patent US20190125751A1, “ANTICANCER COMBINATION THERAPY” (BOEHRINGER INGELHEIM INTERNATIONAL GMBH, priority 2016, published 2019).

What was measured:
[1] = test system: EGFR-exon 19 deletion+T790M+C797S; settings: preclinical models; cited from earlier work
mutant forms of EGFR = assay: enzymatic inhibitory activity, mutant forms of EGFR versus wild type EGFR; format: biochemical; settings: in vitro
Text: (§1) Compound A is a small molecule epidermal growth factor receptor (EGFR) mutant-specific inhibitor. […] Compound A is a novel, 3rd generation EGFR mutant-specific TKI, which is currently being investigated in first and second line setting for treatment of patients with EGFR-mutated NSCLC.

[2] = test system: HCC827 (EGFRDelE746-A750); assay: in vivo xenograft study in mice, NSCLC model HCC827; settings: once daily or twice daily
Text: as §1

H1975 (EGFRL858R/T790M) = assay: in vivo xenograft study in mice, NSCLC model H1975; settings: once daily or twice daily
Text: as §1

[3] = mouse, in vivo
Text: as §1

EGFR mutant cell lines = assay: cellular proliferation assays comparing EGFR mutant with EGFR wild type cell lines; format: cell-based; settings: EGFR mutant versus EGFR wild type cell lines
Text: as §1

[4] = test system: T790M-containing cell lines; settings: several preclinical models; cited from earlier work

## C=CC(=O)Nc1cc(Nc2nccc(-c3cn(C)c4ccccc34)n2)c(OC)cc1N(C)CCN(C)C [AZD9291, osimertinib]
[1]
  sensitivity of the mutant protein to the drug: resistant

## C=CC(=O)Nc1cccc(Oc2nc(Nc3ccc(N4CCN(C)CC4)cc3)nc3ccsc23)c1 [Compound A, N-(3-{2-[4-(4-methyl-piperazin-1-yl)-phenylamino]-thieno[3,2-d]pyrimidin-4-yloxy}-phenyl)-acrylamide]
Mutant forms of EGFR
  enzymatic inhibitory activity towards mutant forms of EGFR compared to wild type EGFR: more potent
[2]
  anti-tumor activity as a single agent: Tumor regressions were observed in all models
H1975 (EGFRL858R/T790M)
  anti-tumor activity as a single agent: Tumor regressions were observed in all models
[3]
  tolerability: tolerated by the mice
EGFR mutant cell lines
  inhibition of proliferation of mutated cell lines at lower concentration than for cells expressing wild type EGFR receptor: approximately 35 fold

## CN(C)C/C=C/C(=O)Nc1cc2c(Nc3ccc(F)c(Cl)c3)ncnc2cc1O[C@H]1CCOC1 [Compound B, afatinib]
[4]
  inhibition of T790M-containing cell lines: effectively inhibit

## COc1cc2ncnc(Nc3ccc(F)c(Cl)c3)c2cc1NC(=O)/C=C/CN1CCCCC1 [dacomitinib]
[4]
  inhibition of T790M-containing cell lines: effectively inhibit
